From US20090275574A1, “NOVEL COMPOUNDS-300” (ASTRAZENECA AB, priority 2008, published 2009)

What was measured:
[1] = target: T1, hM1 (human Muscarinic receptor subtype 1) (Homo sapiens, UniProt P11229); experiment: Human M1 calcium mobilization FLIPR assay; assay type: cell-based; conditions: hM1 expressed in CHO cells, intracellular Ca2+ release (FLIPR)
T1 construct: expressed in transfected cells; host or cells: CHO cells (ATCC)
T1 sequence (P11229 1-460): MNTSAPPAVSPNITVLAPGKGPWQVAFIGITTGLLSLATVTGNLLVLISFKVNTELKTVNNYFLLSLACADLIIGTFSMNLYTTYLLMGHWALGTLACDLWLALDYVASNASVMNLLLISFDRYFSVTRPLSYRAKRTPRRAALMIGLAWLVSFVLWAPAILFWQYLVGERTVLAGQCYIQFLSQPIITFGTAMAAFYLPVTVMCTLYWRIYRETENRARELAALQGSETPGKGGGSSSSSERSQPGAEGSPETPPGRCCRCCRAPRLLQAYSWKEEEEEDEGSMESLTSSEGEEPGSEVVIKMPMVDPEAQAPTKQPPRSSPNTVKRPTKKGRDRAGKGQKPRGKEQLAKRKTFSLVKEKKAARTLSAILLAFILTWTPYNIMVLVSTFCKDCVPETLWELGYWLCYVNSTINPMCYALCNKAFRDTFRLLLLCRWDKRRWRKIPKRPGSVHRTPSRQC
Description: Human M1, rat M1, Human M3 and Human M5 Calcium Mobilization FLIPR™ Assay The compound activity in the present invention (EC50 or IC50) is measured using a 384 plate-based imaging assay that monitors drug induced intracellular Ca^2+ release in whole cells. Activation of hM1 (human Muscarinic receptor subtype 1, gene bank access NM_000738), rM1 (rat Muscarinic receptor subtype 1, gene bank access NM_080773), hM3 (human Muscarinic receptor subtype 3, gene bank access NM_000740NM_000740) and hM5 (human Muscarinic receptor subtype 5, gene bank access NM_0121258), receptors expressed in CHO cells (Chinese hamster ovary cells, ATCC) is quantified in a Molecular Devices FLIPR IITM instrument as an increase in fluorescent signal. Inhibition of hM3 and hM5 by compounds is determined by the decrease in fluorescent signal in response to 2 nM acetylcholine activation. […] Prior to experiment, the cell culture medium is removed from the plates by inversion. […] Plates are incubated at 37° C. for 60 minutes prior to start the experiment. The incubation is terminated by washing the cells four times in assay buffer, leaving a residual 25 μl buffer per well. Cell plates are then transferred to the FLIPR, ready for compound additions. The day of experiment, acetylcholine and compounds are diluted in assay buffer in three-fold concentration range (10 points serial dilution) for addition by FLIPR instrument. For all calcium assays, a baseline reading is taken for 10 seconds followed by the addition of 12.5 μl of compounds, resulting in a total well volume of 37.5 μl. Data is collected every second for 60 pictures and then every 6 seconds for 20 pictures prior to the addition of agonist. For hM3 and hM5, before agonist addition, a second baseline reading is taken for 10 seconds followed by the addition of 12.5 μl of agonist or buffer, producing a final volume of 50 μl. After agonist stimulation, the FLIPR continues to collect data every second for 60 pictures and then every 6 seconds for 20 pictures. The fluorescence emission is read using filter 1 (emission 510-570 nm) by the FLIPR on board CCD camera. Calcium mobilization output data are calculated as the maximal relative fluorescence unit (RFU) minus the minimal value for both compound and agonist reading frame (except for hM1 and rM1 using only the maximal RFU). Data are analyzed using sigmoidal fits of a non-linear curve-fitting program (XLfit version 4.2.2 Excel add-in version 4.2.2 build 18 math 1Q version 2.1.2 build 18). All pEC50 and pIC50 values are reported as arithmetic means±standard error of mean of ‘n’ independent experiments.

cloned human M4 receptor = target: T2, cloned human M4 receptor (Homo sapiens, UniProt P08173); experiment: hM4 receptor GTPγS binding; assay type: biochemical; conditions: CHO membranes expressing hM4, [35S]GTPγS binding
T2 construct: purchased Perkin-Elmer RBHM4M; host or cells: Chinese hamster ovary cells (CHO), membranes
T2 sequence (P08173 1-479): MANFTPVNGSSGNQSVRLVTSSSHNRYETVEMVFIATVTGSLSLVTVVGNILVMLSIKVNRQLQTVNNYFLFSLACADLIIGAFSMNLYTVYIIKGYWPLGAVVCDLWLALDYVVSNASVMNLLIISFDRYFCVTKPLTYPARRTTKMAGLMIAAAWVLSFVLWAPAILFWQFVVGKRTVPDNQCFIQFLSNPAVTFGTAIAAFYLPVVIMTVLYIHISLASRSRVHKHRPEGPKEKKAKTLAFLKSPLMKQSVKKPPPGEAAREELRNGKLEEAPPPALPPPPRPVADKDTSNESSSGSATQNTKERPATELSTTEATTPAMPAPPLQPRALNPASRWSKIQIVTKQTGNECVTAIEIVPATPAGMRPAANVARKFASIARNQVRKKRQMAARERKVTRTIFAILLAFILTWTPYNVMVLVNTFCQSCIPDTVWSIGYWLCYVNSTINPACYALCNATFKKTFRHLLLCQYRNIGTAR
Description: hM4 Receptor GTPγS Binding Membranes produced from Chinese hamster ovary cells (CHO) expressing the cloned human M4 receptor (human Muscarinic receptor subtype 4, gene bank access NM_000741), are obtained from Perkin-Elmer (RBHM4M). The membranes are thawed at 37° C., passed 3 times through a 23-gauge blunt-end needle, diluted in the GTPγS binding buffer (50 mM Hepes, 20 mM NaOH, 100 mM NaCl, 1 mM EDTA, 5 mM MgCl2, pH 7.4, 100 μM DTT). The EC50, IC50 and Emax of the compounds of the invention are evaluated from 10-point dose-response curves (three fold concentration range) done in 60 μl in 384-well non-specific binding surface plate (Corning). Ten microliters from the dose-response curves plate (5× concentration) are transferred to another 384 well plate containing 25 μl of the following: 10 μg of hM4 membranes, 500 μg of Flashblue beads (Perkin-Elmer) and GDP 40 μM. An additional 15 μl containing 3.3× (60,000 dpm) of GTPγ^35S (0.4 nM final) are added to the wells resulting in a total well volume of 50 μl. Basal and maximal stimulated [^35S]GTPγS binding are determined in absence and presence of 30 μM final of acetylcholine agonist. The membranes/beads mix are pre-incubated for 15 minutes at room temperature with 40 μM GDP prior to distribution in plates (20 μM final). The reversal of acetylcholine-induced stimulation (10 μM final) of [^35S]GTPγS binding is used to assay the antagonist properties (IC50) of the compounds. The plates are incubated for 60 minutes at room temperature then centrifuged at 400 rpm for 5 minutes. The radioactivity (cpm) is counted in a Trilux (Perkin-Elmer). Values of EC50, IC50 and Emax are obtained using sigmoidal fits of a non-linear curve-fitting program (XLfit version 4.2.2 Excel add-in version 4.2.2 build 18 math 1Q version 2.1.2 build 18) of percent stimulated [^35S]GTPγS binding vs. log(molar ligand). All pEC50 and pIC50 values are reported as arithmetic means±standard error of mean of ‘n’ independent experiments.

SMILES	EC50 [1] [nM]	EC50 (cloned human M4 receptor) [nM]
O=C1CO[C@H]2CCCC[C@@H]2N1C1CCN(C2CCC(COCC3CC3)CC2)CC1 (single isomer, unassigned) [Example 23]	38	> 90000
CC(C)OCC1CCC(N2CCC(N3C(=O)CO[C@H]4CCC(F)(F)C[C@@H]43)CC2)CC1 (single isomer, unassigned) [Example 38]	18	> 90000
CC(C)OCC1CCC(N2CCC(N3C(=O)CO[C@H]4CCCC[C@@H]43)CC2)CC1 (single isomer, unassigned) [Example 19]	14	> 43400
CCOCC1CCC(N2CCC(N3C(=O)CO[C@H]4CCCC[C@@H]43)CC2)C1 (single isomer, unassigned) [Example 44]	0.97	5360
O=C1CO[C@H]2CCCC[C@@H]2N1C1CCN(C2CCC(COCC(F)F)CC2)CC1 (single isomer, unassigned) [Example 26]	17	> 90000
CC(C)OCC1CCC(N2CCC(N3C(=O)CO[C@H]4CCCC[C@@H]43)CC2)CC1 (mixture of isomers) [Example 15, (4aS,8aS)-4-(1-(4-(isopropoxymethyl)cyclohexyl)piperidin-4-yl)hexahydro-2H-benzo[b][1,4]oxazin-3(4H)-one]	10	> 33500
O=C1CO[C@H]2CCCC[C@@H]2N1C1CCN(C2CCC(COCCF)CC2)CC1 (single isomer, unassigned) [Example 24]	41	> 90000
O=C1CO[C@H]2CCCC[C@@H]2N1C1CCN(C2CC(COCC3CCC3)C2)CC1 (single isomer, unassigned) [Example 40]	57	> 90000
CC(C)OCC1CCC(N2CCC(N3C(=O)CO[C@H]4CCCC[C@@H]43)CC2)CC1 (single isomer, unassigned) [Example 18]	7.8	> 24900
CCOCC1CCC(N2CCC(N3C(=O)CO[C@H]4CCCC[C@@H]43)CC2)C1 (single isomer, unassigned) [Example 45]	48	> 14700
CCCOCC1CCC(N2CCC(N3C(=O)NC[C@H]4CCCC[C@@H]43)CC2)CC1 (single isomer, unassigned) [Example 01]	21	> 51900
CCOCC1CCC(N2CCC(N3C(=O)NC[C@H]4CCCC[C@@H]43)CC2)CC1 (mixture of isomers) [Example 08, (4aR,8aS)-1-(1-(4-(ethoxymethyl)cyclohexyl)piperidin-4-yl)octahydroquinazolin-2(1H)-one]	5.2	985
O=C1CO[C@H]2CCCC[C@@H]2N1C1CCN(C2CCC(COCC(F)F)CC2)CC1 (single isomer, unassigned) [Example 27]	4.2	> 90000
CCOC[C@H]1CC[C@@H](N2CCC(N3C(=O)CO[C@H]4CCCC[C@@H]43)CC2)C1 [Example 42, (4aS,8aS)-4-(1-((1R,3S)-3-(ethoxymethyl)cyclopentyl)piperidin-4-yl)hexahydro-2H-benzo[b][1,4]oxazin-3(4H)-one]	4.2	4240
CC(C)OCC1CCC(N2CCC(N3C(=O)NC[C@H]4CCCC[C@@H]43)CC2)CC1 (single isomer, unassigned) [Example 04]	3.2	683
CC(C)OCC1CCC(N2CCC(N3C(=O)CO[C@H]4CCC(F)(F)C[C@@H]43)CC2)CC1 (single isomer, unassigned) [Example 37]	34	> 90000
CCOCC1CCC(N2CCC(N3C(=O)CO[C@H]4CCCC[C@@H]43)CC2)CC1 (single isomer, unassigned) [Example 14]	9.9	4840
CCCOC1CCC(N2CCC(N3C(=O)CO[C@H]4CCCC[C@@H]43)CC2)CC1 (single isomer, unassigned) [Example 17]	88	> 90000
CCCOC1CCC(N2CCC(N3C(=O)NC[C@H]4CCCC[C@@H]43)CC2)CC1 (single isomer, unassigned) [Example 06]	41	> 90000
O=C1CO[C@H]2CCCC[C@@H]2N1C1CCN(C2CCC(COCC3CC3)CC2)CC1 (single isomer, unassigned) [Example 22]	5.6	> 90000
O=C1CO[C@H]2CCCC[C@@H]2N1C1CCN(C2CCC(COCCF)CC2)CC1 (single isomer, unassigned) [Example 25]	9.6	> 26500
CCOCC1CC(N2CCC(N3C(=O)CO[C@H]4CCCC[C@@H]43)CC2)C1 (single isomer, unassigned) [Example 39]	33	> 90000
O=C1COC2CCCC2N1C1CCN([C@H]2CC[C@@H](COCC3CC3)CC2)CC1 (single isomer, unassigned) [Example 48]	15	> 11700
O=C1NC[C@H]2CCCC[C@@H]2N1C1CCN(C2CCC(COCC(F)F)CC2)CC1 (single isomer, unassigned) [Example 51]	23	> 90000
CCOC[C@@H]1CC[C@H](N2CCC(N3C(=O)CO[C@H]4CCCC[C@@H]43)CC2)C1 [Example 43, (4aS,8aS)-4-(1-((1S,3R)-3-(ethoxymethyl)cyclopentyl)piperidin-4-yl)hexahydro-2H-benzo[b][1,4]oxazin-3(4H)-one]	12	> 28100
